According to paper PMC11231141, “Ube3a unsilencer for the potential treatment of Angelman syndrome” (Nature Communications, 2024):

Key:
UBE3A protein = experiment: western blot of UBE3A protein in Ube3a m-/p+ primary neurons; assay type: cell-based, mouse; conditions: 72 h at DIV7, 0.3 µM topotecan, 1 µM (S)-PHA533533, 0.1 µM 3, 0.3 µM (±)-4
Experimental: 2’ MOE gapmer antisense oligonucleotides (ASOs) designed to target mouse Cdk2 sequence […], Cdk5 sequence […], Top1 sequence […], and scrambled […] sequence as a negative control (Integrated DNA Technologies) were formulated in water and added to cultured cortical neurons grown on 6-well plates at DIV5 at a final concentration of 10 μM. Neurons were further cultured and treated at DIV7 with vehicle (0.1% DMSO) or the indicated compounds for 72 h. For western blot analysis, neurons were washed once with PBS and then lysed using RIPA buffer (50 mM Tris-HCl pH 8.0, 150 mM NaCl, 1% NP−40, 0.5% Na-deoxycholate, 0.5% SDS) and protease inhibitor cocktail (P8340, MilliporeSigma) on ice.

paternal UBE3A-YFP = paternal UBE3A-YFP unsilencing, high-content imaging in mouse primary neurons (Ube3a m+/pYFP); assay type: cell-based; conditions: for Emax / EC50: Mus musculus, 72 h, mean ± SEM; for Emax: Neuron, highest concentration with at least 90% neurons alive, read-out: EMAX (% patUBE3A-YFP+); for EC50: Primary neuron, n = 3; for capability to unsilence paternal Ube3a (analog test): mouse primary neurons, up to 5 μM
Experimental: We aimed to identify novel unsilencers of paternal Ube3a by employing a previously developed high-content small molecule screen. This screen was performed in primary neurons derived from knock-in mice harboring a yellow fluorescent protein (YFP) fused to the paternal allele of Ube3a[25], allowing for fluorescence-based identification of the paternal allele-specific expression of UBE3A-YFP (detected by a GFP antibody enhancement) (Fig. 1a and Supplementary Table 1). We screened >2800 compounds from a Pfizer chemogenetic library, which contains small molecules selected to cover a broad spectrum of pharmacological space. We screened small molecules at 1 μM concentration and used 0.3 μM topotecan, a topoisomerase inhibitor that can downregulate the Ube3a-ATS and unsilence the paternal Ube3a, as a positive control (Fig. 1b)[10]. Small molecules that increase the UBE3A-YFP signal represent putative paternal Ube3a unsilencers.
(§1) Immunofluorescence for high-content imaging analysis was performed as previously described with slight modifications. Following drug treatment at DIV7, primary neurons were fixed at DIV10 with 4% paraformaldehyde in PBS at room temperature (RT) for 10 min. After three brief washes in PBS, neurons were permeabilized with PBS/1% Triton-X-100 at RT for 10 min, followed by blocking with PBS including 5% normal goat serum and 0.2% Triton-X-100 (NGST) at RT. […] All acquired images were analyzed by CellProfiler[48]. The mean GFP signal from each drug-treated well was normalized to the average mean GFP signal from DMSO-treated neurons. […] Fluorescent images were acquired using a Nikon Ti2 eclipse fluorescence microscope (Nikon Instruments Inc.) and analyzed using Nikon NIS-Elements software (Nikon Instruments Inc.). Antibody-enhanced UBE3A-YFP fluorescence intensities were determined from DAPI and NeuN double-positive neurons in drug-treated wells and normalized to neurons in DMSO-treated wells. The cytotoxicity of a compound was determined by calculating the percentage of neurons (DAPI and NeuN double-positive cells) alive in drug-treated wells compared to the DMSO-treated wells. For determining the effectiveness of unsilencing, the percent neurons expressing GFP signal in neurons (DAPI and NeuN double-positive cells) in drug-treated wells was thresholded such that the percent GFP positive neurons in DMSO-treated wells was set to ~5%. Concentrations where more than 10% of neurons were dead compared to DMSO-treated wells were manually removed and the last included data point was set as a maximum efficacy. Sigmoidal curve fitting for the dose-response analysis was performed using GraphPad Prism software version 8.0 (GraphPad Software).

[1] = cytotoxicity (% viable DAPI/NeuN neurons vs DMSO) in mouse primary neurons; assay type: cell-based; conditions: primary cortical neurons from E15.5 mouse embryos, mean ± SEM, n = 3
Experimental: as §1

Ube3a-ATS = experiment: quantitative RT-PCR of Ube3a-ATS in Ube3a m-/p+ primary neurons; assay type: cell-based, mouse; conditions: 72 h at DIV7, 0.3 µM topotecan, 1 µM (S)- or (R)-PHA533533, 0.1 µM 2, 0.1 µM 3, 0.3 µM (±)-4, 5 µM (S,R)-5
Experimental: Next, 1 ml of Neurobasal Plus medium (A3582901, ThermoFisher) containing 5% FBS (TMS-013-B; MilliporeSigma) was added to the cortical mixture to deactivate the papain and subsequently triturated. […] Isolated cortical neurons were plated onto poly-D-lysine coated 384-well plates at 2 × 10^4 cell/well for screening and dose-response assays, or 6-well plates at 1 × 10^6 cell/well for molecular and biochemical assays (western blot, ASO-dependent knock-down, and quantitative RT-PCR).

TOP1 = target: T1, TOP1 (Homo sapiens, UniProt P11387); experiment: TOP1-mediated DNA relaxation assay; assay type: biochemical; conditions: 3 μM topotecan; increasing concentrations of (S)- and (R)-PHA533533; vs DMSO
T1 construct: purchased TopoGEN
T1 sequence (P11387 1-765): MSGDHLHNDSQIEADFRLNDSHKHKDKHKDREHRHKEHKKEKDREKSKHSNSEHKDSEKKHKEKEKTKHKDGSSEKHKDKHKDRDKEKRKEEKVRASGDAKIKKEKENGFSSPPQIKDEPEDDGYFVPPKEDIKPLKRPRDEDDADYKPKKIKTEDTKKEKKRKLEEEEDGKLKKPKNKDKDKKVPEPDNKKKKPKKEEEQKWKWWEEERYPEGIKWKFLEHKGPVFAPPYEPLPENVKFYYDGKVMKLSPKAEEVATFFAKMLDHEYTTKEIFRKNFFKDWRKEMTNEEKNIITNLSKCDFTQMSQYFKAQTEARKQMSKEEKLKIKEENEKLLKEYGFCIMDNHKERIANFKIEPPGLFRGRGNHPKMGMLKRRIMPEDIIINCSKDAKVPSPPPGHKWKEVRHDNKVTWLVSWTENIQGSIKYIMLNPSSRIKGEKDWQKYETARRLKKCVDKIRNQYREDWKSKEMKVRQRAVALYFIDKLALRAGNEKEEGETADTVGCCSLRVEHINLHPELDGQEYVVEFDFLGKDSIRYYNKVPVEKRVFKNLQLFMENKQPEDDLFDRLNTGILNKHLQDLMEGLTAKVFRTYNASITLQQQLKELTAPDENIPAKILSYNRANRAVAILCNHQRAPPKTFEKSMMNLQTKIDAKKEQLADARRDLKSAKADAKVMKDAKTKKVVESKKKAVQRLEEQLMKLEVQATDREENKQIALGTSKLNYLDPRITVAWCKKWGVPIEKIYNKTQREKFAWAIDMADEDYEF
Description: […]. […] […]. […] […]. […] […].
The Pfizer chemogenetic library and PHA533533 derivatives were provided by the Compound Transfer Program (CTP) at Pfizer. Topotecan hydrochloride salt was purchased from Cayman Chemicals (Item No. 14129). […] […]. The Human Topoisomerase I Assay Kit was purchased from TopoGEN and performed according to the manufacturer’s protocols.

Row | SMILES | UBE3A protein levels vs DMSO (UBE3A protein) | Emax (paternal UBE3A-YFP) [%] | EC50 (paternal UBE3A-YFP) [nM] | capability to unsilence paternal Ube3a (analog test) (paternal UBE3A-YFP) | CC50 at 72 h [1] [nM] | relative quantity of Ube3a-ATS vs DMSO (Ube3a-ATS) | relative quantity of Ube3a-ATS vs DMSO (Ube3a-ATS; listed as compound 2) | inhibition of TOP1 catalytic activity to relax supercoiled DNA (TOP1) | paternal UBE3A-YFP immunofluorescent signal (paternal UBE3A-YFP)
1 | O=C(Cc1ccc(-c2ccccc2)cc1)Nc1cc(C2CC2)[nH]n1 [Compound 3] | significantly increased | 43.5 ± 8.24 | 100 ± 10 | could unsilence paternal Ube3a | 300 ± 30 | downregulated |  |  | 
2 | CC(C(=O)Nc1cc(C2CC2)[nH]n1)c1ccc(N2CCCC2)cc1 (racemic) [Compound (±)-4] | significantly increased | 65.7 ± 15.4 | 260 ± 100 | could unsilence paternal Ube3a | 1460 ± 240 | downregulated |  |  | 
3 | O=C(Cc1ccc2ccccc2c1)Nc1cc(C2CC2)[nH]n1 [Compound 2] |  | 71.4 ± 7.34 | 140 ± 20 | could unsilence paternal Ube3a | 570 ± 90 | downregulated | did not reach statistical significance |  | 
4 | CC(C(=O)Nc1cc(C2CC2)[nH]n1)c1ccc(N2CCC(O)C2=O)cc1 [Compound (S,R)-5] |  | 58.3 ± 9.24 | 5300 ± 370 | could unsilence paternal Ube3a | 12800 ± 780 | downregulated |  |  | 
5 | C[C@@H](C(=O)Nc1cc(C2CC2)[nH]n1)c1ccc(N2CCCC2=O)cc1 [(R)-PHA533533] |  |  |  |  |  |  |  | had no effect on the TOP1 activity | minimal UBE3A-YFP immunofluorescent signal
